Data as given in patent US20080312271A1, “AZABENZIMIDAZOLYL COMPOUNDS” (Pfizer Inc., priority 2006, published 2008).
pEC50: −log10 of the molar value.

Target: T1, mGluR2 receptor (metabotropic glutamate receptor 2) (Homo sapiens, UniProt Q14416)
T1 construct: expressed in transfected cells
Assay: mGluR2 Potentiator Screen, FLIPR, EC10-EC20 glutamate challenge
Type: cell-based
Settings: mGluR2 potentiator screen, FLIPR, EC10-EC20 glutamate challenge
Summary of the method: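 Potentiator assay in HEK cells stably expressing mGluR2 with Gα15, glutamine-depleted overnight, loaded with Fluo-4 plus probenecid and GPT/pyruvate to remove glutamate. Peak fluorescence ratio curve-fitted, with maximum set by on-plate standards.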

T1 sequence (Q14416 19-872, species assumed): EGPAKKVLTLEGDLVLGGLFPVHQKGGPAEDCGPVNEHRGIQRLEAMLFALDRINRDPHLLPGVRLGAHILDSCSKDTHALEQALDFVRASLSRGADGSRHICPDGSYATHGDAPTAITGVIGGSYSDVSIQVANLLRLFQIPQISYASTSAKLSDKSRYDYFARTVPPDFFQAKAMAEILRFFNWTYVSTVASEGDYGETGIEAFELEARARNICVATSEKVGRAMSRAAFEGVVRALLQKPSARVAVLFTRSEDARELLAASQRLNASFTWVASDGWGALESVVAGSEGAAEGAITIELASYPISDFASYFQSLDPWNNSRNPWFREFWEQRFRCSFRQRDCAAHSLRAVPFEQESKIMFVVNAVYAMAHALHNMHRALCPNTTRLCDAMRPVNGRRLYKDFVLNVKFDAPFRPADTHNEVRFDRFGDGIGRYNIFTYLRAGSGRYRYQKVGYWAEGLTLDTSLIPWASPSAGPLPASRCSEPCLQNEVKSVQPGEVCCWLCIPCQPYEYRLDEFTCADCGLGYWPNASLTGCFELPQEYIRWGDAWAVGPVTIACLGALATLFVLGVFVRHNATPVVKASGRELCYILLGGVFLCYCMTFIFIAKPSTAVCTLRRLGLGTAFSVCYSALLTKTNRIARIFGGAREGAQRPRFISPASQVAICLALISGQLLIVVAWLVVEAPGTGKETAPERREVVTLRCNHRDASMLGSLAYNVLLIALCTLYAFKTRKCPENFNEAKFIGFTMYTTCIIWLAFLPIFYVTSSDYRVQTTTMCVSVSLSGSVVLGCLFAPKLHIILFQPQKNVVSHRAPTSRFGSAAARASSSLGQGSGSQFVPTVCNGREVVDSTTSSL

| pEC50 | SMILES |
| --- | --- |
| 6.80 | Cn1c(CN2CCC(c3ccc(OC(F)(F)F)cc3)CC2)nc2cnccc21 [compound 237] |
| 7.01 | Cc1cc(OC(F)(F)F)ccc1C1CCN(Cc2nc3cnccc3n2C)CC1 [compound 240] |
| 7.29 | Cc1cc(OC(F)(F)F)ccc1C1CCN(Cc2nc3ncccc3n2C)CC1 [compound 241] |
| 7.07 | Cc1cc(C(F)(F)F)ccc1C1CCN(Cc2nc3cnccc3n2C)CC1 [compound 242] |
| 7.29 | Cc1cc(C(F)(F)F)ccc1C1CCN(Cc2nc3ncccc3n2C)CC1 [compound 243] |
| 6.90 | CC(C)Oc1ccc(C2CCN(Cc3nc4cnccc4n3C)CC2)c(F)c1 [compound 261] |
| 6.90 | CC(C)Oc1ccc(C2CCN(Cc3nc4ncccc4n3C)CC2)c(F)c1 [compound 262] |
| 6.04 | Cn1c(CN2CCC(c3ccc(OC(F)F)cc3)CC2)nc2cnccc21 [compound 263] |
| 6.26 | Cn1c(CN2CCC(c3ccc(OC(F)F)cc3)CC2)nc2ncccc21 [compound 264] |
| 6.79 | Cn1c(CN2CCC(c3ccc(OC(F)F)cc3Cl)CC2)nc2cnccc21 [compound 265] |
| 7.26 | Cn1c(CN2CCC(c3ccc(OC(F)F)cc3Cl)CC2)nc2ncccc21 [compound 266] |
| 7.07 | CC(C)Oc1ccc(C2CCN(Cc3nc4cnccc4n3C)CC2)c(Cl)c1 [compound 267] |
| 7.90 | Cn1c(CN2CCC(c3ccc(C(F)(F)F)cc3F)CC2)nc2ncccc21 [compound 268] |
| 7.18 | CC(C)Oc1ccc(C2CCN(Cc3nc4ncccc4n3C)CC2)c(Cl)c1 [compound 269] |
| 6.31 | COc1ccc(C2CCN(Cc3nc4cnccc4n3C)CC2)c(C(F)(F)F)c1 [compound 270] |
| 6.31 | COc1ccc(C2CCN(Cc3nc4ncccc4n3C)CC2)c(C(F)(F)F)c1 [compound 271] |
| 7.62 | Cn1c(CN2CCC(c3ccc(C(F)(F)F)cc3Cl)CC2)nc2ncccc21 [compound 272] |
| 7.07 | Cn1c(CN2CCC(c3ccc(C(F)(F)F)cc3Cl)CC2)nc2cnccc21 [compound 273] |
| 7.05 | Cc1cc(C2CCN(Cc3nc4cnccc4n3C)CC2)ccc1C(F)(F)F [compound 276] |
| 7.22 | Cc1cc(C2CCN(Cc3nc4ncccc4n3C)CC2)ccc1C(F)(F)F [compound 277] |
| 6.61 | COc1cc(C2CCN(Cc3nc4cnccc4n3C)CC2)ccc1C(F)(F)F [compound 278] |
| 6.54 | COc1cc(C2CCN(Cc3nc4ncccc4n3C)CC2)ccc1C(F)(F)F [compound 279] |
| 7.47 | COc1cc(OC(F)(F)F)ccc1C1CCN(Cc2nc3cnccc3n2C)CC1 [compound 280] |
| 7.00 | COc1cc(OC(F)(F)F)ccc1C1CCN(Cc2nc3ncccc3n2C)CC1 [compound 281] |
